Consider 27 compounds from patent US6596758B1, “Benzopyrans and benzoxepines, pharmaceutical compositions comprising them and preparation process” (Merck Patent GmbH, priority 1998, dated 2003).

Data set [1] has as its system pGL3 reporter vector devoid of a PPAR response element. Put plainly: pGL3 reporter vector devoid of a PPAR response element, SK-Hep1 cells. Type of data set: cell-based, human. The source says: (§1) Analysis of the activation of PPARα and PPARγ is based on the transfection of a DNA allowing the expression of a reporter gene (the gene of luciferase) under the control of the PPARs, either endogenous in the case of PPARγ of exogenous in the case of PPARα. The reporter plasmid J3TkLuc comprises three copies of the response element for PPARs of the human apo A-II gene (Staels, B et al. (1995), J. Clin. Invest., 95, 705-712) which are cloned upstream of the promoter of the thymidine kinase gene of the herpes simplex virus in the plasmid pGL3. This reporter gene was obtained by subcloning, in the plasmid pGL3, the plasmid J3TkCAT described above (Fajas, L et al. (1997), J. Biol. Chem., 272, 18779-18789). […] These cells were inoculated at the rate of 20,000 cells per well (96-well plates) and transfected with 150 ng of reporter DNA complexed with a mixture of lipids. In the case of the SK-Hep1 cells, an expression vector for PPARα, described by Sher, T. et al. (1993), Biochemistry, 32, 5598-5604, is cotransfected. After 5, hours, the cells are washed twice and incubated for 36 hours in the presence of the test compound in a fresh culture medium comprising 10% foetal calf serum. At the end of incubation, the cells are lysed and the luciferase activity is measured. This activity is expressed relative to the control value. […]

The subject of data set [2] is db/db mice. Description: Antidiabetic and hypolipidaemic activity by the oral route in db/db mice. As to conditions: 100 mg/kg/day per os. The class given is in vivo. The procedure:
The antidiabetic and hypolipidaemic activity of the compounds of formula I [sic] was determined by the oral route in db/db mice.
Two-month-old db/db mice are treated per os for 15 days with the compound of Example 16 (100 mg/kg/day). Each study group comprises seven animals. After treating for three days (D3) and fifteen days (D15), retro-orbital samples are taken after light anaesthesia and fasting for 4 hours.
The following measurements were taken:
quantitative determination of glycaemia (glucose oxidase) at D3 and D15 and of the lipid parameters with regard to the sera at D15 (COBAS): triglycerides, total cholesterol (CHOL), HDL cholesterol (HDL-C) and free fatty acids (FFA) (BioMérieux and Wako Chemicals quantitative determination kit).
The measurements which appear in this table are mean values±standard error.

Data set [3] deals with T1, PPARα (Homo sapiens, UniProt Q07869).
T1 construct: expressed in transfected cells
T1 sequence (Q07869 1-468): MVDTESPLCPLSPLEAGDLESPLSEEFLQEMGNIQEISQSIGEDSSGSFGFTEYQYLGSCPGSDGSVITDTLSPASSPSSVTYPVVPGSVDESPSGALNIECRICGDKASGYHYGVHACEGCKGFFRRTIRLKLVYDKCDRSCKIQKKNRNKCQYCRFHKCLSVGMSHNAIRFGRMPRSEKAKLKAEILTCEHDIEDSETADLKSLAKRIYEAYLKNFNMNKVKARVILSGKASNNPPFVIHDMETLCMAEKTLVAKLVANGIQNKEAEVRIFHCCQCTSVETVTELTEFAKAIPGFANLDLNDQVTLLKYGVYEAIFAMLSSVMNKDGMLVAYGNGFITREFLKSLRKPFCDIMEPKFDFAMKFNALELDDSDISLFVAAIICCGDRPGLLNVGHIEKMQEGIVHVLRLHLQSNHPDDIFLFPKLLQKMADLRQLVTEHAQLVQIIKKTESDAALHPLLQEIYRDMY
Description: PPARα activation, luciferase reporter (J3TkLuc) in SK-Hep1 cells cotransfected with PPARα expression vector. As to conditions: 36 hours incubation, relative to the control value. The class given is cell-based.
Excerpt: (§2) The hypolipidaemic and hypoglycaemic effect of the compounds of the invention results from their ability to activate the PPARα and PPARγ isoforms.
as §1, with “After 5, hours, the cells are washed twice and incubated for 36 hours in the presence of the test compound in a fresh culture medium comprising 10% foetal calf serum.” left out, “measured.” for “measured. This activity is expressed relative to the control value.”
On the technique in general: Reporter assays use an easily measured gene product as a stand-in for the process of interest.

Data set [4] concerns pGL3 reporter vector devoid of a PPAR response element. Put plainly: pGL3 reporter vector devoid of a PPAR response element, CV1 cells. Type of data set: cell-based, green monkey.
Excerpt: as §1

Data set [5] relates to PPARγ. Put plainly: PPARγ activation, luciferase reporter (J3TkLuc) in CV1 cells. Type of data set: cell-based, green monkey. As to conditions: 36 hours incubation, relative to the control value.
Excerpt: as §2
as §1, with “After 5, hours, the cells are washed twice and incubated for 36 hours in the presence of the test compound in a fresh culture medium comprising 10% foetal calf serum.” left out, “measured.” for “measured. This activity is expressed relative to the control value.”

Where [6] appears, read: day 15, serum, mean ± standard error.

What is called melting point is the temperature of the solid-liquid transition. `CC(/C=C/C1=Cc2ccccc2OC1)=C\C(=O)O` [Example 3b] yielded a melting point of 226 to 228 °C. As for `COc1ccc2c(c1)C(/C=C/C(C)=C/C(=O)O)=CC(C)(C)CS2` [Example 47B, (2E, 4E)-5-(7-Methoxy-3,3-dimethyl-2,3-dihydrobenzo[b]-thiepin-5-yl)-3-methylpenta-2,4-dienoic acid], the melting point lay in the range of 159 to 161 °C. Still for that read-out and setting: in the case of `CC(/C=C/C1=C(c2ccccc2)c2ccccc2OC1)=C\C(=O)O` [Example 7b] it was 258 to 260 °C; in that of `COc1ccc2c(c1)C(/C=C/C(C)=C/C(=O)O)=CC1(CCCCC1)CO2` [Example 34B, (2E, 4E)-5-(Spiro[(7-methoxy-2,3-dihydrobenzo[b]-oxepine)-3,1′-cyclohexane]-5-yl)-3-methyl-penta-2,4-dienoic acid], 173 to 174 °C. Regarding `COc1ccc2c(c1)C(/C=C/C(C)=C/C(=O)O)=CC(C)(C)CO2` [Example 16b, (2E, 4E)-5-(3,3-Dimethyl-7-methoxy-2,3-dihydrobenzoxepin-5-yl)-3-methylpenta-2,4-dienoic acid], the “luciferase activity with pGL3 reporter vector devoid of a PPAR response element” value in data set [1] was “inactive”. Also, in data set [2] (day 3), the “Glycaemia D3, % variation with respect to the control” value is recorded as −28%. Also, the “Glycaemia D3” value in data set [2] (day 3, fasting 4 hours, mean ± standard error) stood at 15.4 ± 3.8 mM. In addition, the “Glycaemia D15, % variation with respect to the control” value in data set [2] (day 15) is −40%. In data set [2] (day 15, fasting 4 hours, mean ± standard error), the “Glycaemia D15” value is on record as 16.7 ± 4.4 mM. Moreover, in data set [2] (day 15, serum), the “CHOL D15, % variation with respect to the control” value is “+19%”; the “FFA, % variation with respect to the control” value is listed as −20%; the “HDL-C D15, % variation with respect to the control” value is “+18%”; the “Triglycerides D15, % variation with respect to the control” value is listed as −68%. In addition, in data set [2] (setting [6]), the “CHOL D15 (total cholesterol)” value amounted to 4.44 ± 0.39 mM, the “FFA (free fatty acids)” value is recorded as 0.82 ± 0.23 (ns) mM, the “HDL-C D15 (HDL cholesterol)” value stood at 3.50 ± 0.37 mM and the “Triglycerides D15” value was determined as 0.69 ± 0.09 mM. For the same compound, the “increase of the luciferase signal” value in data set [3] was 250%. The “luciferase activity with pGL3 reporter vector devoid of a PPAR response element” value in data set [4] is “inactive”. For the same compound, the “increase of the luciferase signal” value in data set [5] was 300%.

The compound `CC(/C=C/C1=CC(C)(C)COc2ccc(C3CCCCC3)cc21)=C\C(=O)O` [Example 50B, (2E, 4E)-5-(7-Cyclohexyl-3,3-dimethyl-2,3-dihydrobenzo[b]-oxepin-5-yl)-3-methylpenta-2,4-dienoic acid] displayed a melting point of 195 to 196 °C. The same measure, in the same setting: in the case of `CC(/C=C/C1=CC(C)(C)COc2ccc(O)cc21)=C\C(=O)O` [Example 44B] it was 206 °C.

The compound `CCCCCC(/C=C/C1=CC(C)(C)COc2ccc(OC)cc21)=C\C(=O)O` [Example 52B, (2E, 4E)-5-(7-Methoxy-3,3-dimethyl-2,3-dihydrobenzo[b]-oxepin-5-yl)-3-pentylpenta-2,4-dienoic acid] came in with a melting point of 147 to 149 °C.

For the compound `CC1=C(/C=C/C(C)=C/C(=O)O)COc2ccccc21` [Example 11b], the melting point lay in the range of 216 to 218 °C. For the compound `COc1ccc2c(c1)OCC(C)(C)C=C2/C=C/C(C)=C/C(=O)O` [Example 39B, (2E, 4E)-5-(8-Methoxy-3,3-dimethyl-2,3-dihydrobenzo[b]-oxepin-5-yl)-3-methylpenta-2,4-dienoic acid], the melting point is 178 to 180 °C. The same measure, in the same setting: in the case of `CC(/C=C/C1=CC(C)(C)COc2ccc(C(C)C)cc21)=C\C(=O)O` [Example 40B, (2E, 4E)-5-(7-Isopropyl-3,3-dimethyl-2,3-dihydrobenzo[b]-oxepin-5-yl)-3-methylpenta-2,4-dienoic acid] it was 145 °C; in that of `CC(=C/C(=O)O)/C=C/C1=Cc2ccccc2OC1(C)C` [Example 5b], 176 °C. `COc1ccc2c(c1)OC(C)(C)C=C2/C=C/C(C)=C/C(=O)O` [Example 48B, (2E, 4E)-5-(7-Methoxy-2,2-dimethyl-2H-chromen-4-yl)-3-methylpenta-2,4-dienoic acid] showed a melting point of 162 to 163 °C. On the same count and under the same terms, then `CCC(/C=C/C1=CC(C)(C)COc2ccc(OC)cc21)=C\C(=O)O` [Example 43B, (2E, 4E)-3-Ethyl-5-(7-methoxy-3,3-dimethyl-2,3-dihydrobenzo[b]-oxepin-5-yl)penta-2,4-dienoic acid], with 166 to 168 °C; and `CC(=C/C(=O)O)/C=C/C1=Cc2ccccc2OC1` [Example 12b], with 224 to 226 °C; and `CCCC(/C=C/C1=CC(C)(C)COc2ccc(OC)cc21)=C\C(=O)O` [Example 49B, (2E, 4E)-5-(7-Methoxy-3,3-dimethyl-2,3-dihydrobenzo[b]-oxepin-5-yl)-3-propylpenta-2,4-dienoic acid], with 174 to 176 °C.

For `CC(/C=C/C1=CC(C)(C)COc2ccc(-c3ccc(C(F)(F)F)cc3)cc21)=C\C(=O)O` [Example 45B, (2E, 4E)-5-[3,3-Dimethyl-7-(4-(trifluoromethyl)phenyl)-2,3-dihydrobenzo[b]-oxepin-5-yl]-3-methylpenta-2,4-dienoic acid], the melting point lay in the range of 194 to 196 °C. The same measure, in the same setting: then `COc1cccc2c1C(/C=C/C(C)=C/C(=O)O)=CC(C)(C)O2` [Example 46B, (2E, 4E)-5-(5-Methoxy-2,2-dimethyl-2H-chromen-4-yl)-3-methylpenta-2,4-dienoic acid], with 160 to 162 °C. Turning to `CCCCCCCCCNC1Oc2ccccc2C=C1/C=C/C(C)=C/C(=O)O` (stereo not drawn), the melting point lay in the range of 104 to 106 °C. On the same count and under the same terms, then `CC(/C=C/C1=CC(C)(C)COc2cc(-c3ccc(F)cc3)ccc21)=C\C(=O)O` [Example 38B, (2E, 4E)-5-[8-(4-Fluorophenyl)-3,3-dimethyl-2,3-dihydrobenzo[b]-oxepin-5-yl]-3-methylpenta-2,4-dienoic acid], with 207 to 209 °C; and `CC(/C=C/C1=CC(C)(C)COc2cc(C)c(C)cc21)=C\C(=O)O` [Example 37B, 3-Methyl-5-(3,3,7,8-tetramethyl-2,3-dihydrobenzo[b]-oxepin-5-yl)penta-2,4-dienoic acid], with 171 to 173 °C.

`CCOC(=O)/C=C(C)/C=C/C1=Cc2ccccc2OC1` [Example 3a] gave a melting point of 110 to 112 °C. Same read-out and setting: in the case of `CC(/C=C/C1=Cc2ccccc2OC1c1ccccc1)=C\C(=O)O` (stereo not drawn) [Example 14b] it was 200 to 202 °C; in that of `CCCCCC1C=C(/C=C/C(C)=C/C(=O)O)c2cc(OC)ccc2OC1` (stereo not drawn) [Example 41, (2E, 4E)-5-(7-Methoxy-3-pentyl-2,3-dihydrobenzo[b]-oxepin-5-yl)-3-methylpenta-2,4-dienoic acid], 154 to 156 °C.

`CCOC(=O)/C=C(C)/C=C/C1=CC(C)(C)COc2cc(-c3ccc(F)cc3)ccc21` [Example 38A, (2E, 4E)-5-[8-(4-Fluorophenyl)-3,3-dimethyl-2,3-dihydrobenzo[b]-oxepin-5-yl]-3-methylpenta-2,4-dienoic acid ethyl ester]: the melting point lay in the range of 113 to 115 °C.

For `CC(/C=C/C1=Cc2ccccc2OC1(C)C)=C\C(=O)O` [Example 4b], the melting point was in the range of 164 to 166 °C. Still for that read-out and setting: then `COc1ccc2c(c1)C(/C=C/C(C)=C/C(=O)O)=C(C)C(C)(C)CO2` [Example 54B, (2E, 4E)-5-(7-Methoxy-3,3,4-trimethyl-2,3-dihydrobenzo[b]-oxepin-5-yl)-3-methylpenta-2,4-dienoic acid], with 129 to 130 °C.
